# Results: US20240325370A1, “THERAPEUTIC REGIMENS OF A DEGRADER OF BRD9” (FOGHORN THERAPEUTICS INC., priority 2021, published 2024)
# Read-outs that look alike come from different tables or passages of the source.
# How the values were obtained:
# [1] = molecular target: T1, BRD9 (Homo sapiens, UniProt Q9H8M2); test: BRD9 degradation by western blot in synovial sarcoma cells (SYO-1, ASKA); type: cell-based; conditions: for DC50: read-out: Fitted DC50
# T1 sequence (Q9H8M2 1-597): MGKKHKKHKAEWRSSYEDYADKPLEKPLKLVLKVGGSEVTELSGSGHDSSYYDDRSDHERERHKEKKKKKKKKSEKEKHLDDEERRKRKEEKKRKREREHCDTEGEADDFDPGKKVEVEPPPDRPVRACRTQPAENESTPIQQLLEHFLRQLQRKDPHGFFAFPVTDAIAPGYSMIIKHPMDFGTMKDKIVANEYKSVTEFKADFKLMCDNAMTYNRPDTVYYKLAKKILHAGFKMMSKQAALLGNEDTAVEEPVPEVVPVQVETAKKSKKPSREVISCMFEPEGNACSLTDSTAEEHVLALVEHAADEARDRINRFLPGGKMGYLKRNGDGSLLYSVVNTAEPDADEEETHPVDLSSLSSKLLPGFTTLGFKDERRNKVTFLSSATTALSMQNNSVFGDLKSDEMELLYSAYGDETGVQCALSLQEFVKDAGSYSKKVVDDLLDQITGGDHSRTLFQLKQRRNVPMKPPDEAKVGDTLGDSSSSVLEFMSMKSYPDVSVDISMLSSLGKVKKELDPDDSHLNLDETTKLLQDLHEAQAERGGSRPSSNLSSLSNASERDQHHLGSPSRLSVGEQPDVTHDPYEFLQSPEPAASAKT
# Description: Method. Synovial sarcoma cells were plated in 6-well plate at […] cells/well and treated with serial concentrations of BRD9 degrader (10 nM top concentration, diluted 1:3) the next day for two time points at 37° C. Cells were then harvested, washed with cold PBS, and frozen in cell pellets at −80° C. Lysates were prepared by resuspending thawed pellets in 1×RIPA Lysis and Extraction buffer (Thermo Fisher, Cat #89900) with 1× Halt™ Protease and Phosphatase Inhibitor Cocktail, EDTA-free (Thermo Fisher, Cat #78441) and 1:1000 dilution Pierce™ Universal Nuclease for Cell Lysis 25ku (Thermo Fisher, Cat #88700). Lysates were incubated on ice for 10 minutes and then centrifuged in 4° C. at maximum speed (15,000 rpm) for 10 minutes. Samples were then analyzed for total protein using BCA protein quantification assay and diluted to 1 ug/μL with lysis buffer and 1× NuPAGE™ LDS Sample Buffer (4×) (Thermo Fisher, Cat #NP0007) and 1×DTT from 30× stock (Cell Signaling Technologies, Cat #14265S). Samples with 20-25 ug of total protein were loaded into 4-12% Bis-Tris Mini-Gel with 1×MES Running buffer and run at 150V for 45 minutes. Gels were transferred using Trans-Blot® Turbo™ Transfer System (semi-dry) at 25V for 10 minutes (High MW setting) on nitrocellulose blots. Blots were blocked in 5% milk in TBST for 1 hour and probed with BRD9 antibody (Bethyl Labs, Cat #A303-781A, 1:750 for SYO1, and Cell Signaling Technologies, Cat #71232S for ASKA) and beta-Actin antibody (Cell Signaling Technologies, Cat #3700, 1:2000) overnight at 4° C. The next day, blots were washed in TBST 3× and probed with 1:5000 IRDye® 680LT Goat anti-Rabbit IgG Secondary Antibody (LICOR, Cat #926-68021) and 1:10000 IRDye® 800CW Goat anti-Mouse IgG Secondary Antibody (LiCOR, Cat #926-32210) in LiCOR Odyssey® Blocking Buffer (TBS) for 1 hour at room temperature. Blots were washed in TBST 3× and scanned at […] wavelength using LiCOR Odyssey® CLx Imaging System. Western blot signal was quantified using same analyses program included in the same machine. BRD9 signal was quantified by normalizing to beta-actin signal and all samples were normalized to DMSO, set as 100% signal.
# [2] = Interconversion between Enantiomer 1 and Enantiomer 2 in cell medium; type: physicochemical; conditions: Enantiomer 1 dosing, cell medium 37° C.; for Mean peak area ratio of Enantiomer 2 over Enantiomer 1 peak area ratio: 0.2 µM
# Description: For the assessment of interconversion between Enantiomer 1 and Enantiomer 2 in cell medium, the following test was performed. […] At designated time point, aliquot (50 μL) was taken and processed by the addition of 150 μL of acetonitrile containing 0.1% formic acid and internal standard for LC/MS-MS analysis. Peak areas of both Enantiomer 1 and Enantiomer 2 were determined for each sample using a chiral specific analytical method.
# [3] = molecular target: T1, BRD9; test: BRD9 degradation by western blot in synovial sarcoma cells (SYO-1, ASKA); type: cell-based; conditions: 30 minutes, up to 10 µM
# [4] = molecular target: T1, BRD9; test: Pharmacodynamic activity in SYO-1 xenograft model (tumor BRD9 western blot); type: in vivo, mice; design: from tissue; host or cells: SYO-1 xenograft tumours in BALB/c nude or NOD SCID mice; conditions: SYO-1 xenograft, BALB/c Nude mice; single dose i.v. (Table 6)
# Description: Method. The SYO-1 tumor cells were maintained in vitro as adherent cells in Dulbecco's Modified Eagle Medium (DMEM) supplemented with 10% fetal bovine serum at 37° C. in an atmosphere of 5% CO2 in air. The cells growing in an exponential growth phase were harvested and counted for tumor inoculation. BALB/c Nude mice (Shanghai Lingchang biological science) were inoculated subcutaneously on the right flank with (5×10^6) in 0.1 mL of phosphate buffered saline (PBS). The treatment-(described in table 6)—was started on day 19 after tumor inoculation, when the average tumor size reached 499 mm^3.
# Mice were treated with racemic D1, 1 mg/kg, i.p. for 4 weeks, mice were euthanized, and tumors collected 1, 4, 8, 24, 48 and 72-hour post last dose. Tumors were lysed with 1×RIPA lysis buffer (Boston BioProducts, BP-115D) with protease and phosphatase protein inhibitor (Roche Applied Science #04906837001 & 05892791001). Equal amount of lysate (30 ug) were loaded in 4-12% Bis-Tris Midi Protein Gels in 1×MOPS buffer; samples ran at 120 V for 120 min. Proteins was transferred to membrane (NC) with TransBlot at 250 mA for 150 minute, then membranes were blocked with Odyssey Blocking buffer for 1 hour at room temperature. Membranes were hybridized overnight in cold room with primary antibodies. Images acquired using Li-COR imaging system (Li-COR Biotechnology, Lincoln, Nebraska).
# Further study. The other study examined a range of compound D1 dose levels (0.05, 0.25, 1 or 5 mg/kg) formulated in a vehicle of 20% SBECD for tumor BRD9 protein levels up to 144 hours post dose. […] BRD9 protein levels were still depleted by 83.4% and 73.2% at 120 hours (5 days) and 144 hours (6 days), respectively, after a single IV administration of 5 mg/kg of compound D1, which corresponds to ˜2.5 mg/kg of compound S-D1.
compound,measurement,setting,value
"COc1cc(-c2cn(C)c(=O)c3cnc(N4CCC4)cc23)cc(OC)c1CN1CCC(CN2CCC3(CC2)CN(c2ccc4c(c2)C(=O)N([C@@H]2CCC(=O)NC2=O)C4)C3)CC1 (single isomer, unassigned) [Enantiomer 1]",DC50,"[1]; ASKA, 0.5 h",> 10 nM
same,DC50,"[1]; ASKA, 2 h",0.38 nM
same,DC50,"[1]; SYO-1, 1 h",2.8 nM
same,DC50,"[1]; SYO-1, 6 h",0.066 nM
same,potency in degradation of endogenous BRD9 protein,"[1]; two synovial sarcoma cell lines, early time point",largely inactive or with much reduced degradation potency
same,Mean peak area ratio of Enantiomer 2 over Enantiomer 1 peak area ratio,[2]; 0 h,0.0
same,Mean peak area ratio of Enantiomer 2 over Enantiomer 1 peak area ratio,[2]; 0.5 h,0.0
same,Mean peak area ratio of Enantiomer 2 over Enantiomer 1 peak area ratio,[2]; 2 h,0.13
same,Mean peak area ratio of Enantiomer 2 over Enantiomer 1 peak area ratio,[2]; 6 h,0.43
same,% Enantiomer 2,[2]; 2 h,12%
same,% Enantiomer 2,[2]; 6 h,30%
same,BRD9 degradation activity,[3],no discernable activity
same,Pharmacodynamic activity: tumor BRD9 protein level by western blot,[4],inactive and did not degrade BRD9 protein
